Laboratory results reported in the NIST ThermoML archive (doi:10.1021/je500594z).
± gives the expanded uncertainty stated by the source.

Test: xn = mol fraction of the nth substance listed
Conditions: 101 kPa, Liquid; for viscosity: Falling or rolling sphere viscometry; for speed of sound: Sing-around technique in a fixed-path interferometer; for mass density: Vibrating tube method

CCn1cc[n+](C)c1.O=S(=O)([N-]S(=O)(=O)C(F)(F)F)C(F)(F)F + CCO
Conditions | mass density [kg/m3] | speed of sound [m/s] | viscosity [mPa·s]
278.15 K, x1 = 0.051 | 946.21 ± 0.14 | 1201.4 ± 0.63 | 2.42 ± 0.02
278.15 K, x1 = 0.102 | 1052.67 ± 0.18 | 1199.9 ± 0.63 | 3.44 ± 0.03
278.15 K, x1 = 0.198 | 1191.39 ± 0.26 | 1210.6 ± 0.63 | 5.9 ± 0.05
278.15 K, x1 = 0.292 | 1281.48 ± 0.28 | 1224.4 ± 0.64 | 8.91 ± 0.07
278.15 K, x1 = 0.402 | 1356.04 ± 0.3 | 1239.1 ± 0.65 | 13.41 ± 0.11
278.15 K, x1 = 0.501 | 1405.04 ± 0.29 | 1250.3 ± 0.65 | 18.24 ± 0.14
278.15 K, x1 = 0.619 | 1449.8 ± 0.25 | 1261.2 ± 0.65 | 25.83 ± 0.2
278.15 K, x1 = 0.71 | 1476.96 ± 0.24 | 1268.1 ± 0.66 | 33.19 ± 0.26
278.15 K, x1 = 0.811 | 1502.1 ± 0.24 | 1274.8 ± 0.66 | 43.83 ± 0.34
278.15 K, x1 = 0.907 | 1521.68 ± 0.24 | 1280 ± 0.66 | 56.33 ± 0.23
278.15 K, x1 = 1 | 1538.23 ± 0.25 | 1284.9 ± 0.66 | 75.08 ± 1
298.15 K, x1 = 0.051 | 927.85 ± 0.14 | 1139.3 ± 0.61 | 1.57 ± 0.01
298.15 K, x1 = 0.102 | 1033.54 ± 0.17 | 1142.6 ± 0.61 | 2.16 ± 0.02
298.15 K, x1 = 0.198 | 1171.44 ± 0.26 | 1158.2 ± 0.61 | 3.47 ± 0.03
298.15 K, x1 = 0.292 | 1261.14 ± 0.27 | 1174.5 ± 0.62 | 5.02 ± 0.04
298.15 K, x1 = 0.402 | 1335.52 ± 0.29 | 1190.9 ± 0.63 | 7.16 ± 0.06
298.15 K, x1 = 0.501 | 1384.32 ± 0.28 | 1203 ± 0.63 | 9.66 ± 0.08
298.15 K, x1 = 0.619 | 1429.22 ± 0.24 | 1214.6 ± 0.64 | 13.22 ± 0.1
298.15 K, x1 = 0.71 | 1456.41 ± 0.23 | 1222 ± 0.64 | 16.41 ± 0.13
298.15 K, x1 = 0.811 | 1481.59 ± 0.23 | 1229 ± 0.64 | 20.91 ± 0.16
298.15 K, x1 = 0.907 | 1501.19 ± 0.23 | 1234.4 ± 0.64 | 25.67 ± 0.2
298.15 K, x1 = 1 | 1517.76 ± 0.24 | 1240.1 ± 0.64 | 32.02 ± 0.25
318.15 K, x1 = 0.051 | 909.21 ± 0.14 | 1079.4 ± 0.58 | 1.09 ± 0.01
318.15 K, x1 = 0.102 | 1014.18 ± 0.17 | 1087.3 ± 0.59 | 1.46 ± 0.01
318.15 K, x1 = 0.198 | 1151.39 ± 0.25 | 1107.7 ± 0.6 | 2.27 ± 0.02
318.15 K, x1 = 0.292 | 1240.83 ± 0.27 | 1126.5 ± 0.6 | 3.21 ± 0.03
318.15 K, x1 = 0.402 | 1315.11 ± 0.29 | 1144.5 ± 0.61 | 4.59 ± 0.04
318.15 K, x1 = 0.501 | 1363.99 ± 0.28 | 1157.6 ± 0.62 | 5.85 ± 0.05
318.15 K, x1 = 0.619 | 1408.9 ± 0.24 | 1170 ± 0.62 | 7.84 ± 0.06
318.15 K, x1 = 0.71 | 1436.15 ± 0.22 | 1177.9 ± 0.62 | 9.67 ± 0.08
318.15 K, x1 = 0.811 | 1461.4 ± 0.22 | 1185.3 ± 0.62 | 11.96 ± 0.09
318.15 K, x1 = 0.907 | 1481.05 ± 0.23 | 1191.2 ± 0.63 | 14.35 ± 0.11
318.15 K, x1 = 1 | 1497.65 ± 0.23 | 1196.6 ± 0.63 | 17.32 ± 0.14
338.15 K, x1 = 0.051 | 889.98 ± 0.15 | 1020.7 ± 0.56 | 0.79 ± 0.01
338.15 K, x1 = 0.102 | 994.4 ± 0.17 | 1033.2 ± 0.57 | 1.05 ± 0.01
338.15 K, x1 = 0.198 | 1131.14 ± 0.25 | 1058.3 ± 0.58 | 1.6 ± 0.01
338.15 K, x1 = 0.292 | 1220.47 ± 0.26 | 1079.7 ± 0.59 | 2.23 ± 0.02
338.15 K, x1 = 0.402 | 1294.8 ± 0.28 | 1099.7 ± 0.59 | 3.16 ± 0.03
338.15 K, x1 = 0.501 | 1343.74 ± 0.27 | 1113.9 ± 0.6 | 3.99 ± 0.03
338.15 K, x1 = 0.619 | 1388.81 ± 0.23 | 1127.3 ± 0.6 | 5.23 ± 0.04
338.15 K, x1 = 0.71 | 1416.16 ± 0.21 | 1135.6 ± 0.61 | 6.35 ± 0.05
338.15 K, x1 = 0.811 | 1441.5 ± 0.21 | 1143.7 ± 0.61 | 7.7 ± 0.06
338.15 K, x1 = 0.907 | 1461.23 ± 0.22 | 1150 ± 0.61 | 9.11 ± 0.07
338.15 K, x1 = 1 | 1477.86 ± 0.22 | 1155.8 ± 0.61 | 10.82 ± 0.08
